Compound | melting point [°C]
Nc1ccc(Cl)nc1N | 129 to 131
CC(C(O)c1ccccc1)N(C)S(=O)(=O)c1ccc([N+](=O)[O-])cc1 (stereo not given) | 132 to 134
Nc1ccc(N2CCCC2=O)cc1 | 125 to 127
N#CCc1ccc(OCC2CO2)cc1 (stereo not given) | 52 to 54
N#Cc1cccc(NCc2ccc(Cl)cc2)c1 | 84 to 86
OC1CCOc2ccc(Br)cc21 (stereo not given) | 91 to 93
CC(C)(C)OC(=O)NCc1cccc(O)c1 | 79 to 81
C/C=C/c1cc(C(=O)O)cc(OC)c1OC | 142 to 144
O=Cc1cncc2ccccc12 | 103 to 105
CCOc1cc(C=O)cc(Br)c1OCc1ccccc1 | 55 to 57
OC[C@@H](O)CNCCC(F)(F)F | 34 to 36
CNC(=O)c1cc(S(=O)(=O)Cl)cn1C | 154 to 156
Cn1ccc(C(=O)O)cc1=O | 219 to 221
Cc1ccc(CCC(=O)O)cc1Cl | 84 to 86
CN(C1CCCCC1)S(=O)(=O)c1ccc(N)cc1 | 142 to 144
Cc1cccc2nc(CCl)cc(=O)n12 | 120 to 122
CC(=O)c1cc(S(N)(=O)=O)ccc1C | 124 to 126
Cc1nn(-c2ccc(F)cc2)c2sc(C(=O)O)cc12 | 205 to 210
O=C(CCl)Nc1nnc(C2CC2)o1 | 148 to 150
NC(=O)c1ccc(N)cc1F | 148 to 150
O=C(O)Cc1ccc(S(=O)(=O)N2CCOCC2)s1 | 116 to 118
COC(=O)C(=O)CC(=O)c1ccc2c(c1)OCO2 | 98 to 105
Cc1ccc([N+](=O)[O-])cc1NC(=O)CCCl | 155 to 157
CC(C)(C)OC(=O)Nc1ncon1 | 165 to 167
CNS(=O)(=O)CC1CCCN1 (stereo not given) | 91 to 93

Compound | melting point [°C]
COCCc1ccc(OCCCC(=O)O)cc1 | 47 to 49
COC(=O)c1cc(S(=O)(=O)Cl)ccc1Br | 89 to 91
O=S(=O)(c1ccccc1)N1C2Cc3ccccc3C21 (stereo not given) | 120 to 122
O=C(O)c1n[nH]c2ccccc2c1=O | 259 to 261
CC(c1ccc(Cl)cc1Cl)S(N)(=O)=O (stereo not given) | 123 to 125
NS(=O)(=O)CCC(=O)O | 111 to 113
Cc1cc(C(=O)O)c(C)s1 | 114 to 116
Cc1nn(Cc2ccccc2)c(Cl)c1C(=O)O | 180 to 182
COC(=O)C(C)Sc1ccccc1C(=O)O (stereo not given) | 118 to 120
Cc1n[nH]c(-c2ccccc2C)n1 | 141 to 143
O=C(O)CCCc1cc(Cl)sc1Cl | 42 to 44
COCCNc1ccc(S(C)(=O)=O)cc1N | 144 to 146
Cc1cc(C(=O)O)nn1-c1ccc(Cl)c(Cl)c1 | 219 to 221
Cc1nc(N)sc1-c1ccccc1 | 163 to 165
COCCn1nc(C(=O)O)ccc1=O | 156 to 158
CCOc1ccc(N)cc1CN1CCCC1 | 58 to 60
CCOC(=O)c1ccc(S(=O)(=O)Cl)cc1 | 49 to 51
Nc1ccnc2nc(C(F)(F)F)nn12 | 221 to 223
c1cnc2c(c1)CCN2 | 79 to 81
NC(=O)c1ccccc1Oc1cccc(N)c1 | 129 to 131
COc1cc(C(=O)O)cc(NS(C)(=O)=O)c1OC | 214 to 216
COc1cccc(C2CC(=O)CC(=O)C2)c1 | 131 to 133
NNC(=O)Cc1nc(-c2ccccc2)cs1 | 135 to 140
CC(c1nc(-c2ccc(Cl)cc2)no1)N1CCNCC1 (stereo not given) | 78 to 80
Nc1ccc2[nH]c(C(F)F)nc2c1 | 129 to 131

Compound | melting point [°C]
CC1(c2ccc(N)cc2)NC(=O)NC1=O (stereo not given) | 187 to 189
COC(=O)c1cnc(N)nc1 | 209 to 211
Cc1ccc2[nH]c(C(=O)O)cc2c1C | 243 to 245
CS(=O)(=O)N1CCc2c(N)cccc2C1 | 155 to 157
N#Cc1ccccc1Sc1ccc(C(=O)O)cc1 | 182 to 184
CCOC(=O)c1noc(N)c1-c1ccccc1 | 105 to 117
C#CCNC(=O)Nc1ccccc1Cl | 173 to 175
Cc1cc(C)c(O)c(C(=O)O)c1 | 172 to 174
COc1ccc(C(=O)Nc2ccc(C(=O)O)s2)cc1 | 198 to 200
O=C(O)C1CC(c2ccc(Cl)cc2)C1 (stereo not given) | 119 to 121
Cc1n[nH]c(C(=O)O)c1C | 288 to 290
CS(=O)(=O)Nc1ccc(Br)cc1Cl | 98 to 100
CC1Cc2ccccc2N1S(N)(=O)=O (stereo not given) | 67 to 69
Cc1cc(-c2nc3ccccc3n2C)c(=O)[nH]n1 | 334 to 336
Cc1ncccc1C(=O)O | 231 to 232
Cc1ccc(CC(=O)c2ccc(C)cc2)cc1 | 100 to 102
Nc1nccnc1CO | 115 to 117
Cc1c(C(=O)O)nnn1-c1cccc2cccnc12 | 188 to 190
Nc1ncn(Cc2ccncc2)n1 | 156 to 158
N#CCCCOc1cccnc1N | 88 to 90
CN(C)C(=O)c1cc(N)ccc1Cl | 158 to 160
CCCNC(=O)CN1CCNCC1 | 31 to 32
O=c1n(CCCO)nc2ccccn12 | 81 to 83
CCOC(=O)c1c(Cl)nc2ccccc2c1C | 109 to 111
COc1ccc(/C=C/C(=O)O)c(OC)c1 | 192 to 194

Compound | melting point [°C]
CCOc1ccc(C2(O)CCCC2)cc1 | 88 to 90
CCOC(=O)Nc1ccc(O)cc1 | 124 to 126
O=c1c2c(-c3ccco3)csc2nc(S)n1-c1ccccc1 | 242 to 244
CC(NC(=O)c1cc(-c2ccccc2)on1)C(=O)O (stereo not given) | 164 to 166
Cc1ccc(S(=O)(=O)C2CCCCC2=O)cc1 (stereo not given) | 77 to 79
O=C(Nc1ccc(Br)cc1Cl)OCC(F)(F)F | 70 to 72
CCC1(CC)NC(=O)NC1=O | 180 to 182
CNC(=O)c1cc([N+](=O)[O-])ccc1F | 142 to 144
C=Cc1nc(-c2ccc(Cl)cc2)no1 | 62 to 64
O=C(CCl)N(Cc1ccc(Cl)cc1)C12CC3CC(CC(C3)C1)C2 | 112 to 114
O=C1NC(=O)C2(CCCC2)N1 | 140 to 142
CC(=O)NCc1cccc(C(=O)O)c1 | 166 to 168
CCc1nc2sccc2c(=O)n1N | 132 to 134
O=CC1=C(N2CCOCC2)C(=Cc2ccccc2)CC1 | 141 to 143
ClCc1ncc(-c2ccccc2Br)o1 | 85 to 87
Cc1cc2ccccc2nc1Br | 94 to 96
O=c1n(CCO)nc2ccccn12 | 134 to 136
CN(CC(=O)O)C(=O)c1ccc(Br)o1 | 110 to 112
OC1C2CCCC1CN(Cc1ccccc1)C2 (stereo not given) | 88 to 90
COc1ccccc1C(C#N)NC(=O)OC(C)(C)C (stereo not given) | 79 to 81
O=C(O)c1ccc2cc[nH]c2n1 | 209 to 211
O=C(O)C1CC(=O)N(c2ccccc2Cl)C1 (stereo not given) | 141 to 143
O=c1c(Cl)c(Cl)cnn1-c1ccc(F)cc1F | 173 to 175
CN(C)S(=O)(=O)c1cccc(C#N)c1 | 128 to 130
C#CCn1cnc(-c2ccccc2)c1N | 126 to 128

Compound | melting point [°C]
Cc1cc(NC(=O)OC(C)(C)C)sc1C | 102 to 104
O=C(O)C1(c2cccc(Br)c2)CCCCC1 | 164 to 166
CC(C)c1nnc(CC#N)[nH]1 | 148 to 150
CCc1c(O)nc(S)n(-c2ccccc2C)c1=O | 178 to 180
O=C(O)Cc1ccc(S(=O)(=O)N2CCCC2)s1 | 262 to 264
COC(=O)C=Cc1ccc(C(F)(F)F)cc1 | 74 to 76
NC(=S)Cc1ccc(Br)cc1 | 146 to 148
N#CCc1c(C#N)c(N)nc(N2CCCCC2)c1C#N | 142 to 144
COc1cc(F)c(S(=O)(=O)Cl)cc1OC | 82 to 84
Cc1nn(Cc2ccc(F)cc2)c(Cl)c1C=O | 49 to 51
CC(C)c1c(C(=O)O)cnn1Cc1ccccc1 | 153 to 155
CC(=O)c1ccc(S(=O)(=O)N2CCCCC2C(=O)O)cc1 (stereo not given) | 132 to 134
COc1ccc(-c2cc(C(=O)O)[nH]n2)cc1OC | 225 to 227
CC(=O)c1c(O)cc(F)cc1F | 45 to 47
COc1c([N+](=O)[O-])ccc2[nH]ncc12 | 219 to 221
CC(=O)Nc1ccc(C(N)=S)cc1 | 239 to 241
NC(=O)C1CCCCN1C(=O)c1cccc(Br)c1 (stereo not given) | 177 to 179
O=C(c1cc2ccccc2o1)C1CC1 | 63 to 65
CC(C)(C)OC(=O)Nc1cccc(C(N)=NO)c1 | 168 to 170
Nc1nc2ccc(Cl)cn2n1 | 183 to 185
Cc1cccc(C(C)C)c1NC(=O)C(C)Cl (stereo not given) | 126 to 128
COc1ccc(S)c2ccccc12 | 142 to 144
CC(CCNC(N)=O)c1ccccc1 (stereo not given) | 77 to 79
Cc1c(C)n(CCc2ccccn2)c2[nH]cnc(=N)c12 | 132 to 134
Cc1ccc(CNC(N)=O)cc1 | 184 to 186

Compound | melting point [°C]
ClCc1nc2ncc(Br)cc2[nH]1 | 209 to 211
O=C(O)CCc1ccsc1 | 54 to 58
COc1ccc(-c2cc(C(=O)O)sc2C)cc1 | 186 to 188
Nc1ccc(I)cc1O | 104 to 106
Cc1ccccc1-c1csc(=O)[nH]1 | 123 to 125
Nc1cnccc1O | 156 to 158
O=C(Nc1ccccn1)c1ccc(Br)cc1 | 134 to 136
O=S(=O)(Nc1cccc(Br)c1)c1ccccc1 | 116 to 118
O=C(O)CN1CSCC1=O | 171 to 173
OCC1(NCCc2ccccc2)CCCC1 | 86 to 88
O=C(O)c1ccc(F)c(S)c1 | 163 to 165
CN(C)c1ccc(-c2cncc(C(=O)O)c2)cc1 | 284 to 286
O=C(O)c1cn(Cc2ccccc2)nc1-c1ccc(Cl)cc1 | 162 to 165
Nc1cccc(-c2nnco2)c1 | 66 to 68
COc1cc2c(c(OC)c1OC)CCNCC2 | 60 to 62
CC(=O)c1ccc(OC(C)C(=O)O)cc1 (stereo not given) | 158 to 161
O=C(O)CNC(=O)c1ccc(F)c(F)c1 | 180 to 182
Cn1c(=O)ccn(CC(=O)O)c1=O | 240 to 242
O=C(O)c1ccc(Oc2ccc(F)c(F)c2)cc1 | 156 to 158
CC(Oc1cccnc1N)c1ccccc1 (stereo not given) | 83 to 85
